Experimental data from patent US8193213B2, “Spermicidal and/or antifungal composition and methods of using the same” (priority 2003, dated 2012).
Marks after values point to notes of the source that are not given here.

Tests used:
[1] = tested on: Candida albicans; assay: Antifungal susceptibility testing (NCCLS, MIC/MFC) against C. albicans; type: cell-based; design: Lowest [Active]: unit not given here; details: for Lowest MIC: lowest concentration that appears to have no growth; for CFU for MFC at 200 / CFU for MFC at 300 / Lowest [Active] / CFU for MFC at 100: C. albicans (19 hours); for CFU for MFC at 200: concentration 200; for CFU for MFC at 300: concentration 300; for Lowest [Active]: concentrations 300, 200, 100, unit not given, N/A = no active concentration; for CFU for MFC at 100: concentration 100
Experimental: (§1) Antifungal susceptibility testing was performed following the NCCLS guidelines with minor modifications. Briefly, a suspension of Candida albicans cells was prepared from pure cultures grown overnight on yeast-malt extract (YM) agar at 35° C. Several small colonies were removed from a YM agar plate and transferred to 5 ml of 0.85% saline. The cells were suspended by 15 seconds of vortexing and the cell density of the resulting suspension was determined using a spectrophotometer. The cell density was adjusted by addition of 0.85% saline until the transmittance matched that of a 0.5 McFarland standard when measured at a wavelength of 530 nm. An aliquot of this suspension was diluted 1:1000 in RPMI-MOPS to yield a working suspension. A similar suspension of Aspergillus fumigatus spores was obtained by using spores stored at […] in 0.85% saline. These spores were diluted in 0.85% saline to match the McFarland standard transmittance. This suspension was then further diluted 1:50 in RPMI-MOPS to produce the working inoculum suspension.
(§2) Dilution series of the test compounds were made in RPMI-MOPS containing 2% DMSO. An aliquot of each dilution was added in duplicate to the wells of a sterile 96-well, flat bottom microtiter plate. Then, an aliquot of either the C. albicans cell suspension or the A. fumigatus spore suspension were added to each well for a final volume of 200 μl. The plates were then incubated at […]. […] A similar determination was made for the A. fumigatus plates after 48 hours. […] The numbers of colony forming units (CFU) were counted and these values used to calculate the percent survival of cells or spores in inocula relative to the number of CFUs in the working inoculum suspension. The minimum fungicidal concentration (MFC) was the lowest concentration of test compound with a percent survival of less than 2%.

[2] = tested on: Aspergillus fumigatus; assay: Antifungal susceptibility testing (NCCLS, MIC/MFC) against A. fumigatus; type: cell-based; design: Lowest [Active]: unit not given here; details: for Lowest MIC / Lowest MFC: A. fumigatus; for Lowest MIC: lowest concentration that appears to have no growth; for Lowest MFC: lowest concentration that kills >= 98% of the cells in the well; for CFU for MFC at 100 / CFU for MFC at 200 / CFU for MFC at 300 / Lowest [Active]: A. fumigatus (48 hours); for CFU for MFC at 100: concentration 100; for CFU for MFC at 200: concentration 200; for CFU for MFC at 300: concentration 300; for Lowest [Active]: concentrations 300, 200, 100, unit not given, N/A = no active concentration
Experimental: as §1, §2

[3] = tested on: adult male Swiss mice; assay: Antispermatogenic screen: single gavage dose to male mice, testes weight and Spermatogenic Index at 72 h; type: in vivo; details: day 3 (72 h)
Experimental: The compounds of the invention were tested in mice for their effects on spermatogenesis three days after a single oral dose by the procedure described in Cook et al (1995) below. Compounds active in this test have been shown also to be anti-fertility compounds.
Compounds were screened for antispermatogenic activity by dosing male mice on day 1 with a gavage dose of control vehicle, positive control (compound 1) or compound of the invention. At 72 h after dosing, animals were killed and the testes were excised, trimmed of fat, and weighed. One testis was examined histologically and rated for spermatogenic potential using the Spermatogenic Index (J. M. Whitsett, P. F. Noden, J. Cherry and A. D. Lawton, J. Reprod. Fertil., 72, 277 (1984), which is a semiquantitative estimate of the sperm producing ability of the testes The index is based on histological appearance of the spermatogenic cells in the seminiferous tubules. A scale of 1 to 6 is used with 5 to 6 being the normal status. A second assessment was based on the weight of the testes.
Tables 1 and 2 show pertinent biological results in terms of the change in testes weight (TW) and spermatogenic index (SI) relative to a control containing only the administration vehicle, but no indenopyridine. In Tables 1 and 2, R^3 and R^4 refer to structures Ib, where R^3 is in the para position; R^1 is ethyl; R^2 is methyl; and R^5 is hydrogen.

[4] = racemic compounds, 1 mg/kg single gavage dose, vehicle 90% water, 7% Tween20, 3% ethanol
[5] = racemic compounds, 3 mg/kg single gavage dose, vehicle 90% water, 7% Tween20, 3% ethanol
[6] = racemic compounds, 10 mg/kg single gavage dose, vehicle 90% water, 7% Tween20, 3% ethanol
[7] = Table 2, 1 mg/kg single gavage dose, vehicle 1% Tween20 in water
[8] = Table 2, 3 mg/kg single gavage dose, vehicle 1% Tween20 in water
[9] = Table 2, 10 mg/kg single gavage dose, vehicle 1% Tween20 in water
[10] = Table 2, 30 mg/kg single gavage dose, vehicle 1% Tween20 in water

Question: What does the source list for `C[C@@H]1[C@H](O)[C@@H](C)/C=C/C=C/C=C/C=C/C=C/C=C/C=C/[C@H](O[C@@H]2O[C@H](C)[C@@H](O)[C@H](N)[C@@H]2O)C[C@@H]2O[C@](O)(C[C@@H](O)C[C@@H](O)[C@H](O)CC[C@@H](O)C[C@@H](O)CC(=O)O[C@H]1C)C[C@H](O)[C@H]2C(=O)O` [AMP B, reference compound]?
Answer: Lowest MIC ([1]; C. albicans): 0.5 mg/L; Lowest MIC [2]: 2 mg/L

Question: `CCN1CCC2=C(c3ccc(OC)cc3)c3cc(C)ccc3C2C1.Cl` (stereo not drawn) [Compound 4587-082] was tested. Which “Lowest MIC” value ([1]; C. albicans) did it give?
Answer: Its value is >100 mg/L.

Question: And the “Lowest MIC” value [2]?
Answer: The value was 100 mg/L.

Question: What about the “Lowest MFC” value [2] of the same compound?
Answer: Its value is 100 mg/L.

Question: For `CCN1CCC2C(C1)c1ccc(C)cc1C2c1ccc(OC)cc1.Cl` (racemic) [Compound 4587-029], which “CFU for MFC at 200” value [1] is on record?
Answer: The value was “Static (Static = well looked clear, but <98% killed)”.

Question: What about the “CFU for MFC at 300” value [1] of the same compound?
Answer: The value was “Cidal (Cidal = >98% killed)”.

Question: What about the “Lowest [Active]” value [1] of the same compound?
Answer: Its value is 200.

Question: What about the “CFU for MFC at 100” value [2] of the same compound?
Answer: Its value is “Cidal (Cidal = >98% killed)”.

Question: What about the “CFU for MFC at 200” value [2] of the same compound?
Answer: The value was “Cidal (Cidal = >98% killed)”.

Question: What about the “CFU for MFC at 300” value [2] of the same compound?
Answer: The value was “Cidal (Cidal = >98% killed)”.

Question: What about the “Lowest [Active]” value [2] of the same compound?
Answer: The value was 100.

Question: How did the “SI change (%) (Spermatogenic Index, % change from vehicle control)” value [3, 4] turn out when `CCN1CC[C@@H]2[C@@H](c3ccc(C(=O)O)cc3)c3cc(C)c(I)cc3[C@@H]2C1.Cl` (racemic) [Compound 17, (4aRS,5SR,9bRS)-2-Ethyl-2,3,4,4a,5,9b-hexahydro-8-iodo-7-methyl-5-(4-carboxyphenyl)-1H-indeno[1,2-c]pyridine Hydrochloride] was run?
Answer: The value was −67%*.

Question: And the “TW change (%) (testes weight, % change from vehicle control)” value (from here on “TW change (%)”) [3, 4]?
Answer: Its value is −18%.

Question: And the “SI change (%) (Spermatogenic Index, % change from vehicle control)” value [3, 5]?
Answer: The value was −66%*.

Question: What about the “TW change (%)” value [3, 5] of the same compound?
Answer: Its value is −9%.

Question: And the “SI change (%) (Spermatogenic Index, % change from vehicle control)” value [3, 6]?
Answer: The value was −76%*.

Question: And the “TW change (%)” value [3, 6]?
Answer: Its value is −32%*.

Question: How did the “SI change (%) (Spermatogenic Index, % change from vehicle control)” value [3, 7] turn out when `CCN1CC[C@@H]2[C@@H](c3ccc(C(=O)OC)cc3)c3cc(C)ccc3[C@@H]2C1.Cl` (single isomer, unassigned) [3 (l), (1)-Enantiomer of (4aRS,5SR,9bRS)-2-Ethyl-2,3,4,4a,5,9b-hexahydro-7-methyl-5-(4-carbomethoxyphenyl)-1H-indeno[1,2-c]pyridine Hydrochloride] was run?
Answer: The value was 3%.

Question: And the “TW change (%)” value [3, 7]?
Answer: Its value is 8%.

Question: What about the “SI change (%) (Spermatogenic Index, % change from vehicle control)” value [3, 8] of the same compound?
Answer: The value was −2%.

Question: What about the “TW change (%)” value [3, 8] of the same compound?
Answer: Its value is −12%.

Question: What about the “SI change (%) (Spermatogenic Index, % change from vehicle control)” value [3, 9] of the same compound?
Answer: Its value is −33%*.

Question: What about the “TW change (%)” value [3, 9] of the same compound?
Answer: Its value is −13%.

Question: What about the “SI change (%) (Spermatogenic Index, % change from vehicle control)” value [3, 10] of the same compound?
Answer: Its value is −64%*.

Question: What about the “TW change (%)” value [3, 10] of the same compound?
Answer: Its value is −30%*.

Question: With `CCN1CCC2C(C1)c1cc(I)c(C)cc1C2c1ccc(C(=O)OC)cc1.Cl` (stereo not drawn) [Compound 4587-073d] as the compound, how does the “CFU for MFC at 100” value [1] read?
Answer: The value was “Static (Static = well looked clear, but <98% killed)”.

Question: And the “CFU for MFC at 200” value [1]?
Answer: The value was “Cidal (Cidal = >98% killed)”.

Question: And the “CFU for MFC at 300” value [1]?
Answer: The value was “Cidal (Cidal = >98% killed)”.

Question: What about the “Lowest [Active]” value [1] of the same compound?
Answer: The value was 100.

Question: What about the “CFU for MFC at 100” value [2] of the same compound?
Answer: The value was “Cidal (Cidal = >98% killed)”.

Question: And the “CFU for MFC at 200” value [2]?
Answer: The value was “Cidal (Cidal = >98% killed)”.

Question: What about the “CFU for MFC at 300” value [2] of the same compound?
Answer: The value was “Cidal (Cidal = >98% killed)”.

Question: And the “Lowest [Active]” value [2]?
Answer: Its value is 100.

Question: How did the “CFU for MFC at 200” value [1] turn out when `CCN1CCC2C(C1)c1ccc(C)cc1C2c1ccc(C(=O)OC)cc1.Cl` (stereo not drawn) [Compound 4587-056l] was run?
Answer: The value was “Cidal (Cidal = >98% killed)”.

Question: What about the “CFU for MFC at 300” value [1] of the same compound?
Answer: Its value is “Cidal (Cidal = >98% killed)”.

Question: And the “Lowest [Active]” value [1]?
Answer: Its value is 200.

Question: And the “CFU for MFC at 100” value [2]?
Answer: Its value is “Cidal (Cidal = >98% killed)”.

Question: And the “CFU for MFC at 200” value [2]?
Answer: Its value is “Cidal (Cidal = >98% killed)”.

Question: What about the “CFU for MFC at 300” value [2] of the same compound?
Answer: Its value is “Cidal (Cidal = >98% killed)”.

Question: What about the “Lowest [Active]” value [2] of the same compound?
Answer: The value was 100.

Question: Which results are given for `CCc1ccc2c(c1)[C@@H](c1ccc(C(=O)OC)cc1)[C@@H]1CCN(CC)C[C@H]21.Cl` (racemic) [Compound 4587-064]?
Answer: CFU for MFC at 100 [1]: Static (Static = well looked clear, but <98% killed); CFU for MFC at 200 [1]: Cidal (Cidal = >98% killed); CFU for MFC at 300 [1]: Cidal (Cidal = >98% killed); Lowest [Active] [1]: 100; Lowest MIC ([1]; C. albicans): 100 mg/L; Lowest MFC ([1]; C. albicans, lowest concentration that kills >= 98% of the cells in the well): 100 mg/L; CFU for MFC at 100 [2]: Cidal (Cidal = >98% killed); CFU for MFC at 200 [2]: Cidal (Cidal = >98% killed); CFU for MFC at 300 [2]: Cidal (Cidal = >98% killed); Lowest [Active] [2]: 100; Lowest MIC [2]: 50 mg/L; Lowest MFC [2]: 75 mg/L

Question: How did the “Lowest MFC (class word)” value ([1]; C. albicans) turn out when `CCN1CCC2C(C1)c1ccc(C)cc1C2c1ccc(C)cc1.Cl` (stereo not drawn) [Compound 4587-002d] was run?
Answer: The value was “fungistatic (Fungistatic = compound with an MIC, but <98% of cells killed)”.

Question: What about the “Lowest MIC” value ([1]; C. albicans) of the same compound?
Answer: The value was 50 mg/L.

Question: What about the “Lowest MIC” value [2] of the same compound?
Answer: Its value is 50 mg/L.

Question: And the “Lowest MFC” value [2]?
Answer: Its value is 50 mg/L.
